Assay results taken from patent US20060240402A1, “Marine invertebrate gametes and embryos as an assay system for therapeutic screening” (priority 2005, published 2006).

Experiments:
human tumor cell lines = details: several human tumor cell lines; cited from earlier work
Spisula oocytes = experiment: Whole egg germinal vesicle breakdown (GVBD) and spindle assembly assay; format: cell-based, Spisula solidissima
Protocol: Oocytes are prepared as generally described in Allen R D. (1953) Biol Bull. 105:213-239; Palazzo, R. E., Vaisberg, E., Cole, R. W. and Rieder, C. L. (1992) Science. 256: 219-221; Vogel, J. M., Stearns, T., Rieder, C. L. and Palazzo, R. E. (1997) J. Cell Biol. 137: 193-202; and Schnackenberg, B. J. and Palazzo, R. E. (1999) Biology of the Cell. 91: 429-438.
(§1) Briefly, adult Spisula or Mulinia are collected from the Atlantic Ocean, often by the Marine Resources Department of the Marine Biological Laboratory (Woods Hole, Mass.) or from commercial fisherman and maintained in flow-through sea water tanks at ˜13° C. containing artificial sea water (ASW). Oocytes are then dissected from ripe ovaries, passed through cheese cloth, and washed in sea water by three cycles of suspension/sedimentation. Oocytes are then activated by treatment with KCl for 4 min, and lysates are prepared as previously described by Palazzo et al. (Palazzo, R. E., J. B. Brawley, and L. I. Rebhun (1988). Zool. Sci. (Tokyo). 5: 603-611).
(§2) Aster formation in oocytes, embryos, and lysates is assessed with polarized light microscopy by adding 3% hexylene glycol to small aliquots and warming to 24° C. (Palazzo, R. E., J. B. Brawley, and L. I. Rebhun (1988). Zool. Sci. (Tokyo). 5: 603-611). The remaining lysate is aliquoted, snap frozen, and stored at −80° C. Frozen lysates retain the ability to assemble asters after years of storage.
In one embodiment of the invention, oocyte activation to induce GVBD, aster formation, spindle assembly, and cleavage can be induced by 5-hydroxy triptamine (5-HT, serotonin), fertilization, or depolarization of the cell plasma membrane by treatment with KCl when cells are incubated in sea water. This requires the entry of calcium into the cell after treatment with these agents. Thus, the GVBD, or events subsequent to GVBD, can be used as indicators for hormone-receptor interactions (serotonin), effect of calcium channel blockers (resulting in a block of GVBD and subsequent events after treatment with KCL, 5HT or sperm), or agents that block fertilization generally. Therefore the present invention can be used not only to screen for antimitotic agents but also putative neuromodulators (serotonin inhibitors and the like), cardiomodulators, vasoactive agents (calcium channel blockers) and anti-fertility agents.
Using the whole egg assay described above, Spisula oocytes were treated with 0.25 μM HMN-176 or 0.001% DMSO and activated to undergo germinal vesicle (nucleus) breakdown (GVBD), and aster and spindle formation.

CFPAC cells = experiment: Mammalian spindle phenotypes and time in mitosis in CFPAC cells; format: cell-based, human
Protocol: To determine the effect of HMN-176 on mammalian cell lines, the transformed human cell line, CFPAC, was used. CFPAC cells were derived from a ductal adenocarcinoma (liver metastasis) from a patient with cystic fibrosis (ATCC #CRL-1918). CFPAC cellswere treated for 2 hours with 0.5 uM DMSO or 0.5 uM HMN-176 (n=79). Cells were studied for progression through mitosis and cell cleavage using video microscopy, or prepared for immunofluorescence analysis with antibodies to visualize beta tubulin or treated with Hoechst 33342 (Sigma Aldrich, St. Louis, Mo. to visualize DNA and chromosomes.

clam tubulin = experiment: Tubulin turbidity assay, clam tubulin; format: biochemical, Spisula solidissima; details: 0.025 uM, 0.25 uM and 2.5 uM; 30° C., 0.7 mg/mL of tubulin
Protocol: Three-cycled tubulin can also be prepared from Spisula oocyte lysates using a modification of the procedure described in Suprenant, K. A. (1989) Exp. Cell Res. 184: 167-180. Lysates are thawed and diluted with 0.8 vol of dilution buffer (100 mM potassium-Pipes, pH 7.2, 4 mM EGTA, 1 mM MgSO4, 1 mM DTT) containing 1 mM GTP, […] leupeptin, and 0.2 mM phenylmethylsulfonyl fluoride. Diluted lysate is then gently resuspended on ice and centrifuged (39,000 g/2° C./30 min) using a rotor (model JA20; Beckman Instruments Fullerton, Calif.) to clarify. Supernatants are collected and three-cycled tubulin prepared as previously described (Suprenant, K. A. (1989) Exp. Cell Res. 184: 167-180).
(§3) The tubulin polymerization assay used herein is performed according to the teachings of Vogel, J. M., Steams, T., Rieder, C. L. and Palazzo, R. E. (1997) J. Cell Biol. 137: 193-202 and Suprenant K A, Marsh J C. (1987) J Cell Sci. 87:71-84, each of which is incorported herein by reference in its entirety.
(§4) Sea urchin and clam tubulin turbidity assays were performed at 30° C. and 0.7 mg/mL of tubulin. Doses of 0.025 uM, 0.25 uM and 2.5 uM of HMN-176 were compared to DMSO treatment, all of which were compared to untreated control.

sea urchin tubulin = experiment: Tubulin polymerization (turbidity) assay, sea urchin tubulin; format: biochemical, Strongylocentrotus purpuratus; details: 0.025 uM, 0.25 uM and 2.5 uM
Protocol: Sea urchin (Strongylocentrotus purpuratus) microtubules are prepared by three cycles of polymerization/depolymerization as previously described (Suprenant, K. A., and J. C. Marsh (1987) J. Cell Sci. 87: 71-84). Aliquots of ˜0.5-2.0 mg/ml protein are stored in 100 mM potassium-Pipes, pH 6.9, 1 mM EGTA, 5 mM MgSO4, 2 mM GTP (reassembly buffer) at −80° C. Three-cycled tubulin is diluted with reassembly buffer to 0.7 mg/ml for all functional assays unless otherwise stated.
as §3
The effect of HMN-176 on sea urchin tubulin (0.75 mg/mL of S. purpuratus tubulin at 26° C.) polymerization in defined media was examined according to the methods described above. Sea urchin tubulin was isolated from Strongylocentrotus purpuratus oocytes by three cycles of microtubule polymerization and depolymerization. After the third cycle, microtubules were depolymerized, centrifuged to clarify, and the resulting supernatant adjusted to a concentration of 0.75 mg/ml protein. Samples were aliquoted and stored at −80° C.
The polymerization assay was used to test the effects of varying concentrations of HMN-176 (0.025 uM, 0.25 uM and 2.5 uM) along with varying amounts of DMSO for control (0.0001%, 0.001% and […]), respectively. Polymerization of untreated tubulin was also measured.
as §4

[1] = system: centrosomes in Spisula lysates; experiment: Lysate aster formation assay; format: biochemical, Spisula solidissima; details: 0.025 uM, 0.25 uM or 2.5 uM
Protocol: as §1, §2
Using the lysate aster formation assay described above, Spisula lysates were warmed to room temperature with lysates containing varying amounts of HMN-176 (0.025 uM, 0.25 uM or 2.5 uM) or DMSO (0.0001%, 0.001%, or 0.01%) as control. […]

[2] = system: Isolated centrosomes reconstituted with sea urchin tubulin; experiment: Isolated centrosome assay (aster formation in defined media); format: biochemical, Spisula solidissima; details: 0.25 uM, 0.75 mg/mL sea urchin tubulin, time course of 25 minutes
Text: Centrosomes are isolated and prepared according to the methods of Vogel et al. (Vogel, J. M., Stearns, T., Rieder, C. L. and Palazzo, R. E. (1997) J. Cell Biol. 137: 193-202). Briefly, centrosomes are isolated from lysates by sucrose density-gradient centrifugation using a modification of the procedures known in the art for isolation of mammalian centrosomes. As such, lysates are thawed on ice, and aliquots are removed and tested for aster formation using hexylene glycol and polarized light microscopy as previously described. For each preparative gradient, 2-3 ml of crude lysate (˜9-18×10^6 centrosomes) are diluted with 0.60 vol of aster buffer (Aster Buffer: 20 mM sodium-Pipes, pH 7.2, 100 mM NaCl, 5.0 mM MgSO4), resuspended, and centrifuged (5,500 g/4° C./10 min) using a rotor (model JS 13.1; Beckman Instruments). […] Fractions (1.0 ml) are collected at 4° C. by bottom puncture of centrifuge tubes, and sucrose density is determined with the use of a hand-held refractometer.
Fractions are tested for centrosome content based on their ability to organize microtubules in the form of radial astral arrays when reconstituted with tubulin media. Thus, 10 μl aliquots from each fraction are diluted into 40 μl of tubulin media (0.3-0.7 mg/ml three-cycled sea urchin tubulin in RAB buffer containing 2 mM GTP) and incubated for 10 min at ambient temperature, and asters are counted using a hemacytometer viewed with a polarized light microscope. […]
Centrosome assembly and function is crucial for the coordinated polymerization of microtubules that leads to spindle assembly and chromosome segregation during mitosis. […] The isolated centrosome assay is used to (1) induce the synchronous assembly of centrosomes in hundreds of grams of live Spisula oocytes or large quantities of oocyte lysates and is performed according to the methods disclosed by Palazzo, R. E., Vaisberg, E., Cole, R. W. and Rieder, C. […]

mouse xenograft models = details: cited from earlier work
[3] = marine invertebrate gamete system, concentration not given
[4] = 0.5 uM treatment for 2 hours, n = 79
[5] = 0.75 mg/mL S. purpuratus tubulin at 26° C.

In the case of `COc1cc2c(c(OC)c1OC)-c1ccc(OC)c(=O)cc1[C@@H](NC(C)=O)CC2` [Colchicine], the Cytotoxicity (human tumor cell lines) is given as “cytotoxic”, the “Effect on GVBD” value (Spisula oocytes; [3]) is given as “does not affect GVBD” and the “Effect on spindle assembly” value (Spisula oocytes; [3]) is given as “inhibits spindle assembly”.
In the case of `COc1ccc(S(=O)(=O)Nc2ccccc2/C=C/c2cc[n+]([O-])cc2)cc1` [HMN-176, (E)-4-{[2-N-[4-methoxybenzenesulfonyl]amino]stillbazole}1-oxide], the Spindle types observed (CFPAC cells; 0.5 uM for 2 hours) is reported as “multipolar spindles with disorganized chromosomes”, the “Spindle type: Bipolar, number of cells” value (CFPAC cells; [4]) is reported as 13 and the “Spindle type: Bipolar, percent of cells” value (CFPAC cells; [4]) is reported as 16%. The “Spindle type: Monopolar, number of cells” value (CFPAC cells; [4]) was “Monopolar 0 (0%)”, the “Spindle type: Monopolar, percent of cells” value (CFPAC cells; [4]) was “Monopolar 0 (0%)” and the “Spindle type: Multipolar, number of cells” value (CFPAC cells; [4]) was 66. The “Spindle type: Multipolar, percent of cells” value (CFPAC cells; [4]) was 84%, the “Time that CFPAC cells were in mitosis” value (CFPAC cells; 0.5 uM, video microscopy) was 147 ± 55 min and the “Effect on clam tubulin turbidity” value (clam tubulin) was “Very little to no effect”. The “Effect on polymerization of tubulin” value (sea urchin tubulin; [5]) was “only minor effect on the polymerization of tubulin”, the “Effect on rate of microtubule polymerization” value (sea urchin tubulin; [5]) was “may slightly lower the rate of microtubule polymerization” and the “Effect on ultimate plateau of tubulin polymerization (turbidity)” value (sea urchin tubulin; 0.75 mg/mL S. purpuratus tubulin at 26° C., by 25 minutes) was “does not affect the ultimate plateau”. For the same compound, the “Effect on sea urchin tubulin turbidity” value (sea urchin tubulin; 30° C., 0.7 mg/mL of tubulin) was “Very little to no effect”, the “Status of centrosomes (immunofluorescence alpha-/gamma-tubulin)” value ([1]; lysates) was “centrosomes remained intact in all samples” and the “Effect on aster formation in lysates” value ([1]; lysates warmed to room temperature) was “blocked aster formation in the lysate aster formation assay in a dose dependent manner”. For the same compound, the “Effect on germinal vesicle breakdown (GVBD)” value (Spisula oocytes; 0.25 μM, activated Spisula oocytes, observed at 9-26 minutes) was “not affecting GVBD”, the “Effect on spindle assembly in oocytes” value (Spisula oocytes; 0.25 μM, activated Spisula oocytes, observed at 15 and 26 minutes) was “inhibit spindle assembly” and the “Aster formation by isolated centrosomes in defined media” value [2] was “no asters were formed”. The “Background microtubule polymerization (not centrosome-associated)” value [2] was “microtubule polymerization was observed in the background” and the “Status of centrosomes (gamma-tubulin staining)” value [2] was “Centrosomes remained intact in all samples”.
For `COc1ccc(S(=O)(=O)N(C(C)=O)c2ccccc2/C=C/c2cc[n+]([O-])cc2)cc1` [HMN-214, (E)-4-{2-[2-(N-acetyl-N-[4-methoxybenzenesulfonyl]amino]stillbazole]}1-oxide], the Antitumor activity (mouse xenograft models) is given as “potent antitumor activity”.
